From US7196110B2, “N-substituted tricyclic 3-aminopyrazoles as inhibitors for the treatment of cell proliferative disorders” (Janssen Phamaceutica N.V., priority 2002, dated 2007)
pIC50: −log10 of the molar value.

Target: T1, PDGF-receptor beta enzyme comprising the tyrosine kinase domain (Homo sapiens, UniProt P09619)
T1 construct: from amino acid 545 to 1106 of GenBank Access NO: AAA36427
Test: Inhibition of PDGF-receptor kinase activity (cell-free, PLC1 peptide, 33P Flashplate)
Assay type: biochemical
Details: PDGF-R kinase activity; for inhibition at 10 µM: compound at 10 uM, read-out: Percent Inhibition @ 10 uM; for pIC50: read-out: IC50
In short: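 The IC50 is the inhibitor level halving kinase activity relative to inhibitor-free wells, measured as 33P captured on a streptavidin-bound biotin-PLC1 peptide. The reaction ran 60 min at 30 °C in pH 8 Tris buffer with 1 mM DTT, 5 μM ATP and the 545–1106 kinase-domain enzyme.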

T1 sequence (P09619 545-1106): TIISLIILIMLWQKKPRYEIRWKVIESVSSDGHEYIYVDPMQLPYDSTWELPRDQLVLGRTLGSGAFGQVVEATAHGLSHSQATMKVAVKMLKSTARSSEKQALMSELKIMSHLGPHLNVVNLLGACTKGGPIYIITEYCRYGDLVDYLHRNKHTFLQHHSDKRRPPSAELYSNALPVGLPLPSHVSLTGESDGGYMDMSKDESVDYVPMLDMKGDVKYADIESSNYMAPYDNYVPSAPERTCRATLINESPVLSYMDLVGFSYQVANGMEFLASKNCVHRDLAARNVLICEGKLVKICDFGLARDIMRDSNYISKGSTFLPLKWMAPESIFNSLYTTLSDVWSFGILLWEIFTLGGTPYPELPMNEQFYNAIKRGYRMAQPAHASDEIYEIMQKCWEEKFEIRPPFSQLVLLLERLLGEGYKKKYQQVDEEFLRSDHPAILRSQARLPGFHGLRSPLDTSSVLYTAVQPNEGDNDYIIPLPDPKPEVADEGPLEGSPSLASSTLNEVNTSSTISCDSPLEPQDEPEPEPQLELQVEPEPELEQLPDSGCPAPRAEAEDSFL

| inhibition at 10 µM [%] | pIC50 | Compound |
| --- | --- | --- |
| 72.5 | 5.74 | CCOc1cc2c(cc1OCC)-c1n[nH]c(NCc3ccccc3OC)c1C2 [Compound 296, (6,7-Diethoxy-2,4-dihydro-indeno[1,2-c]pyrazol-3-yl)-(2-methoxy-benzyl)-amine] |
| 90.5 | 6.56 | COc1cc2c(cc1OC)-c1n[nH]c(Nc3cccc(C(=O)NCCO)c3)c1C2 [Compound 297, 3-(6,7-Dimethoxy-2,4-dihydro-indeno[1,2-c]pyrazol-3-ylamino)-N-(2-hydroxy-ethyl)-benzamide] |
| 92 | 6.39 | COc1cc2c(cc1OC)-c1n[nH]c(Nc3cccc(C(=O)NCCCN4CCCC4)c3)c1C2 [Compound 298, 3-(6,7-Dimethoxy-2,4-dihydro-indeno[1,2-c]pyrazol-3-ylamino)-N-(3-pyrrolidin-1-yl-propyl)-benzamide] |
| 40 | – | COc1cc2c(cc1OC)C(c1ccccc1)c1c-2n[nH]c1Nc1ccccc1 (stereo not drawn) [Compound 300, (6,7-Dimethoxy-4-phenyl-2,4-dihydro-indeno[1,2-c]pyrazol-3-yl)-phenyl-amine] |
| 72 | – | CCOc1cc2c(cc1OCC)-c1n[nH]c(NCc3ccccc3OC(F)(F)F)c1C2 [Compound 301, (6,7-Diethoxy-2,4-dihydro-indeno[1,2-c]pyrazol-3-yl)-(2-trifluoromethoxy-benzyl)-amine] |
| 47 | – | COc1cc2c(cc1OC)C(c1ccccc1)c1c-2n[nH]c1Nc1cccc(F)c1 (stereo not drawn) [Compound 302, (6,7-Dimethoxy-4-phenyl-2,4-dihydro-indeno[1,2-c]pyrazol-3-yl)-(3-fluoro-phenyl)-amine] |
| 50 | 5.03 | CC(C)(C)c1cc(Nc2[nH]nc3c2Cc2cc(F)ccc2-3)cc(C(C)(C)C)c1 [Compound 303, (3,5-Di-tert-butyl-phenyl)-(6-fluoro-2,4-dihydro-indeno[1,2-c]pyrazol-3-yl)-amine] |
| 38 | 5.46 | Fc1ccc2c(c1)Cc1c-2n[nH]c1NCc1cc(Cl)cc(Cl)c1 [Compound 304, (3,5-Dichloro-benzyl)-(6-fluoro-2,4-dihydro-indeno[1,2-c]pyrazol-3-yl)-amine] |
| 87 | 6.34 | Cc1cccc(CNc2[nH]nc3c2Cc2cc(F)ccc2-3)c1 [Compound 305, (6-Fluoro-2,4-dihydro-indeno[1,2-c]pyrazol-3-yl)-(3-methyl-benzyl)-amine] |
| 47.5 | 5.07 | Cc1ccc(CNc2[nH]nc3c2Cc2cc(F)ccc2-3)cc1Cl [Compound 306, (3-Chloro-4-methyl-benzyl)-(6-fluoro-2,4-dihydroindeno[1,2-c]pyrazol-3-yl)-amine] |
| 59 | 5.47 | COc1ccc(OC)c(CNc2[nH]nc3c2Cc2cc(F)ccc2-3)c1 [Compound 307, (2,5-Dimethoxy-benzyl)-(6-fluoro-2,4-dihydro-indeno[1,2-c]pyrazol-3-yl)-amine] |
| 14 | 6.29 | Fc1ccc2c(c1)Cc1c-2n[nH]c1NCc1ccc(F)c(F)c1 [Compound 308, (3,4-Difluoro-benzyl)-(6-fluoro-2,4-dihydro-indeno[1,2-c]pyrazol-3-yl)-amine] |
| 68.5 | 7.13 | Cc1ccc2c(c1)-c1n[nH]c(Nc3ccc4[nH]ccc4c3)c1C2 [Compound 311, (1H-Indol-5-yl)-(7-methyl-2,4-dihydro-indeno[1,2-c]pyrazol-3-yl)-amine] |
| 56.5 | 5.25 | Cc1ccc2c(c1)-c1n[nH]c(Nc3cc(C(C)(C)C)cc(C(C)(C)C)c3)c1C2 [Compound 312, (3,5-Di-tert-butyl-phenyl)-(7-methyl-2,4-dihydro-indeno[1,2-c]pyrazol-3-yl)-amine] |
| 62.5 | 5.46 | Cc1ccc2c(c1)-c1n[nH]c(NCc3cc(Cl)cc(Cl)c3)c1C2 [Compound 313, (3,5-Dichloro-benzyl)-(7-methyl-2,4-dihydro-indeno[1,2-c]pyrazol-3-yl)-amine] |
| 76 | 6.05 | Cc1cccc(CNc2[nH]nc3c2Cc2ccc(C)cc2-3)c1 [Compound 314, (3-Methyl-benzyl)-(7-methyl-2,4-dihydro-indeno[1,2-c]pyrazol-3-yl)-amine] |
| 17.5 | 5.72 | Cc1ccc2c(c1)-c1n[nH]c(NCc3ccc(C)c(Cl)c3)c1C2 [Compound 315, (3-Chloro-4-methyl-benzyl)-(7-methyl-2,4-dihydro-indeno[1,2-c]pyrazol-3-yl)-amine] |
| 66 | 5.31 | COc1ccc(OC)c(CNc2[nH]nc3c2Cc2ccc(C)cc2-3)c1 [Compound 316, (2,5-Dimethoxy-benzyl)-(7-methyl-2,4-dihydro-indeno[1,2-c]pyrazol-3-yl)-amine] |
| 79 | 5.90 | Cc1ccc2c(c1)-c1n[nH]c(NCc3ccc(F)c(F)c3)c1C2 [Compound 317, (3,4-Difluoro-benzyl)-(7-methyl-2,4-dihydro-indeno[1,2-c]pyrazol-3-yl)-amine] |
| 23 | 4.46 | c1ccc(Nc2[nH]nc3c2CCOc2ccccc2-3)cc1 [Compound 318, (4,5-Dihydro-2H-6-oxa-1,2-diaza-benzo[e]azulen-3-yl)-phenyl-amine] |
| 80.5 | 5.66 | COc1cc2c(cc1OC)-c1n[nH]c(Nc3cccc(C(=O)N4CCN(C)CC4)c3)c1C2 [Compound 319, [3-(6,7-Dimethoxy-2,4-dihydro-indeno[1,2-c]pyrazol-3-ylamino)-phenyl]-(4-methyl-piperazin-1-yl)-methanone] |
| 70.5 | 5.71 | COc1cc2c(cc1OC)-c1n[nH]c(NCc3ccc(C)c(C)c3)c1C2 [Compound 320, (6,7-Dimethoxy-2,4-dihydro-indeno[1,2-c]pyrazol-3-yl)-(3,4-dimethyl-benzyl)-amine] |
| 77 | 8.13 | COc1cc2c(cc1OC)-c1n[nH]c(NCc3c(F)cccc3F)c1C2 [Compound 321, (2,6-Difluoro-benzyl)-(6,7-dimethoxy-2,4-dihydro-indeno[1,2-c]pyrazol-3-yl)-amine] |
| 22 | 7.26 | COc1cc2c(cc1OC)-c1n[nH]c(NCc3cccc(OC)c3OC)c1C2 [Compound 322, (2,3-Dimethoxy-benzyl)-(6,7-dimethoxy-2,4-dihydro-indeno[1,2-c]pyrazol-3-yl)-amine] |
| 60.5 | 5.06 | COc1cc2c(cc1OC)-c1n[nH]c(NCc3cc(F)ccc3F)c1C2 [Compound 323, (2,5-Difluoro-benzyl)-(6,7-dimethoxy-2,4-dihydro-indeno[1,2-c]pyrazol-3-yl)-amine] |
| 61 | 7.01 | COc1cc2c(cc1OC)-c1n[nH]c(NCc3ccccc3F)c1C2 [Compound 325, (6,7-Dimethoxy-2,4-dihydro-indeno[1,2-c]pyrazol-3-yl)-(2-fluoro-benzyl)-amine] |
| 82 | 6.57 | COc1cc2c(cc1OC)-c1n[nH]c(NCc3cccc(Cl)c3Cl)c1C2 [Compound 326, (2,3-Dichloro-benzyl)-(6,7-dimethoxy-2,4-dihydro-indeno[1,2-c]pyrazol-3-yl)-amine] |
